Laboratory results as given in patent US6803366B2, “Agent for improving learning or memory” (Toray Industries, Inc., priority 1999, dated 2004).
Entries after “also recorded” stand apart in the source; their conditions may differ.

Legend:
[1] = tested on: patients suffering from dementia; details: cited from earlier work
ICR male mice [2] = experiment: Test of learning of Step-Down type passive avoidance (MK-801-induced learning disability and memory disorder); format: in vivo; details: test 24 hours after training, FIG. 2
Protocol: In experiments, ICR male mice of 6 weeks old were used. The experiment apparatus comprised a plastic box sizing 25×25×30 cm (width×depth×height), a stainless steel grid for giving electrical shock, which was laid on the floor of the box, and a wooden platform sizing 4.5×4.5×3.0 cm (width×depth×height) placed on a corner on the floor grid.
Sixty minutes before the training trial, 100 or 300 μg/kg of Compound 1, or its solvent, saline, was subcutaneously administered. Thirty minutes later, 0.1 mg/kg of MK-801 which is a non-competitive antagonist of NMDA receptor, which is a compound that causes learning disability and/or memory disorder was intraperitoneally administered. Training trial was carried out by placing a mouse on the platform, and the time period until the mouse stepped down to the floor grid, that is, the Step-Down latency, was measured. Simultaneously with the attaching all of the feet of the mouse to the floor, an electrical shock of 0.6 mA was given for 2 seconds, thereby making the mouse to learn that an electrical shock would be given if the mouse would stepped down to the floor.
Test trials were carried out 24 hours after the training trials. Each mouse was again placed on the platform, and the Step-Down latency was measured for maximally 300 seconds.

ICR male mice [3] = experiment: Evaluation of activity to improve learning and/or memory using Morris water maze; format: in vivo
Protocol: Evaluation of Activity to Improve Learning and/or Memory Using Morris Water Maze
In experiments, ICR male mice of 6 weeks old were used. Using Morris water maze as an experiment apparatus, ability of learning and memory of space was evaluated based on the latency until a mouse escapes to a platform arranged in a pool as an index. One trial was maximally 120 seconds, and 1 session was composed of three trials in which each mouse was made to swim in the pool from three different positions. Average time needed for the escape was calculated and evaluation was made based thereon. On the first day (the first session), no drug and nothing were administered. From the second session (Day 2), Compound 1, Compound 8 or a solvent was administered. Trial was repeated for 5 days (5 sessions).
The dose of Compound 1 was 10, 30 or 100 μg/kg, and the dose of Compound 8 was 100 μg/kg. Compound 1, Compound 8 or saline which was the solvent was subcutaneously administered 30 minutes before the first trial of each session. The data was subjected to analysis of variance and significance was evaluated according to Fisher's PLSD test. The cases where P<0.05 was evaluated as significant.

Nc1c2c(nc3ccccc13)CCCC2 [tacrine]
side effects ([1]; clinical use): hepatic toxicity and choline-related side effects | improvement of intellectual function in cases in which the drug is administered ([1]; dementia patients): improvement of intellectual function to a certain degree is observed in about half of the cases

C[C@]12N[C@H](Cc3ccccc31)c1ccccc12 [MK-801]
Step-Down latency in test trials (passive avoidance reaction) (ICR male mice [2]; MK-801 alone 0.1 mg/kg i.p., vs control group (solvent alone)): significantly shorter than that of the control group; also recorded: significantly suppressed

CN1CC[C@@]2(c3cccc(O)c3)Cc3nc4c(Br)cc(Br)cc4cc3C[C@@H]2C1 [Compound 8, (+)-7,9-dibromo-4a-(3-hydroxyphenyl)-2-methyl-1,2,3,4,4a,5,12,12a-octahydro-quinoline[2,3 g]isoquinoline]
latency required for escaping to the platform; ability of learning and memory of space (ICR male mice [3]; Compound 8 100 μg/kg subcutaneously 30 minutes before first trial of each session, vs saline, FIG. 3): shortened

CN1CC[C@@]2(c3cccc(O)c3)Cc3nc4ccccc4cc3C[C@H]2C1 [Compound 1, (4aR, 12aR)-2-methyl-4a-(3-hydroxyphenyl)-1,2,3,4,4a,5,12,12a-octahydro-quinoline[2,3-g]isoquinoline]
Step-Down latency in test trials: reversal of the shortening by MK-801 (ICR male mice [2]; Compound 1 100 or 300 μg/kg s.c. 60 min before training, MK-801 0.1 mg/kg i.p. 30 min later, vs MK-801 alone): significantly reduced; also recorded: recovered | time period (latency) required for escaping to the platform; ability of learning and memory of space (ICR male mice [3]; Compound 1 10, 30 or 100 μg/kg subcutaneously 30 minutes before first trial of each session, sessions 2-5, vs saline, FIG. 1): shortened dose-dependently from the second session; also recorded: ability of learning and memory of space was improved

COc1cc2c(cc1OC)C(=O)C(CC1CCN(Cc3ccccc3)CC1)C2 (stereo not shown) [Aricept]
improvement in patients suffering from dementia ([1]; dementia in light to medium degree): improvement is observed in about half cases
